Experimental findings from patent publication US9409922B2, “Imidazopyridine macrocycles as inhibitors of human immunodeficiency virus replication” (priority 2014, dated 2016) are described below.

The EC50 is the concentration that produces a half-maximal response.

One experiment relates to NL-RLuc virus. Nature of the experiment: Inhibition of HIV replication: NL-RLuc reporter virus in MT-2 cells, luciferase readout. In kind it is cell-based. Particulars: Human immunodeficiency virus 1, MT2, 120 h, MT-2 cells infected with NL-RLuc virus, 5 days of incubation, 10% FBS, at least 2 experiments. From the text: Inhibition of HIV Replication:
A recombinant NL-RLuc proviral clone was constructed in which a section of the nef gene from NL4-3 was replaced with the Renilla Luciferase gene. This virus is fully infectious and can undergo multiple cycles of replication in cell culture. In addition, the luciferous reporter provides a simple and easy method for quantitating the extent of virus growth and consequently, the antiviral activity of test compounds. The plasmid pNLRLuc contains the proviral NL-Rluc DNA cloned into pUC 18 at the PvuII site. The NL-RLuc virus was prepared by transfection of 293T cells with the plasmid pNLRLuc. Transfections were performed using the LipofectAMINE PLUS kit from Invitrogen (Carlsbad, Calif.) according to the manufacturer and the virus generated was titered in MT-2 cells. For susceptibility analyses, the titrated virus was used to infect MT-2 cells in the presence of compound, and after 5 days of incubation, cells were processed and quantitated for virus growth by the amount of expressed luciferase. Assay media was RPMI 1640 supplemented with 10% heat inactivated fetal bovine serum (FBS), 100 units/ml penicillin G/100 units/ml streptomycin, 10 mM HEPES buffer pH 7.55 and 2 mM L-glutamine. The results from at least 2 experiments were used to calculate the EC50 values. Luciferase was quantitated using the Dual Luciferase kit from Promega (Madison, Wis.). Susceptibility of viruses to compounds was determined by incubation in the presence of serial dilutions of the compound. The 50% effective concentration (EC50) was calculated by using the exponential form of the median effect equation where (Fa)=1/[1+(ED50/drug conc.)^m](Johnson V A, Byington R T. Infectivity Assay. In Techniques in HIV Research. ed. Aldovini A, Walker B D. 71-76. New York: Stockton Press. 1990).
The molecule `Cc1c([C@H](OC(C)(C)C)C(=O)O)c2n3cc(nc3c1C)-c1cccc(c1)-c1c(ccc(F)c1F)O[C@@H](C)CCCCOC1(C)CCN2CC1` [Example 47, (2S)-2-(tert-Butoxy)-2-[(22S)-16,17-difluoro-4,5,22,28-tetramethyl-21,27-dioxa-1,7,34-triazahexacyclo[26.2.2.1^6,^9.1^10,^14.0^2,^7.0^15,^20]tetratriaconta-2,4,6(34),8,10(33),11,13,15(20),16,18-decaen-3-yl]acetic acid] displayed an EC50 of 7 nM. In turn, `Cc1cc2c(cc1C)-c1cccc(c1)-c1cn3c(c([C@H](OC(C)(C)C)C(=O)O)c(C)cc3n1)N1CCC(C)(CC1)OCCCC[C@H](C)O2` [Example 19, (2S)-2-(tert-Butoxy)-2-[(22S)-4,17,18,22,28-pentamethyl-21,27-dioxa-1,7,34-triazahexacyclo[26.2.2.1^6,^9.1^10,^14.0^2,^7.0^15,^20]tetratriaconta-2,4,6(34),8,10(33),11,13,15(20),16,18-decaen-3-yl]acetic acid] registered an EC50 of 15 nM. On the same count and under the same terms, with `Cc1c([C@H](OC(C)(C)C)C(=O)O)c2n3cc(nc3c1Cl)-c1cccc(c1)-c1cc(F)ccc1O[C@@H](C)CCCCOC1(C)CCN2CC1` [Example 61, (2S)-2-(tert-Butoxy)-2-[(22S)-5-chloro-17-fluoro-4,22,28-trimethyl-21,27-dioxa-1,7,34-triazahexacyclo[26.2.2.1^6,^9.1^10,^14.0^2,^7.0^15,^20]tetratriaconta-2,4,6(34),8,10(33),11,13,15(20),16,18-decaen-3-yl]acetic acid] the figure was 15 nM. The same measure, in the same setting: the same measure for `Cc1cc2nc3cn2c(c1[C@H](OC(C)(C)C)C(=O)O)N1CCC(C)(CC1)OCCCCCOc1ccccc1Cc1nnc-3o1` [Example 4, (2S)-2-(tert-Butoxy)-2-{4,28-dimethyl-21,27,33-trioxa-1,7,11,12,34-pentaazahexacyclo[26.2.2.1^6,^9.1^10,^13.0^2,^7.0^15,^20]tetratriaconta-2,4,6(34),8,10,12,15(20),16,18-nonaen-3-yl}acetic acid]: 10 nM. Regarding `Cc1c([C@H](OC(C)(C)C)C(=O)O)c2n3cc(nc3c1C(C)(C)O)-c1cccc(c1)-c1cc(F)ccc1O[C@@H](C)CCCCOC1(C)CCN2CC1` [Example 65, (2S)-2-(tert-Butoxy)-2-[(22S)-17-fluoro-5-(2-hydroxypropan-2-yl)-4,22,28-trimethyl-21,27-dioxa-1,7,34-triazahexacyclo[26.2.2.1^6,^9.1^10,^14.0^2,^7.0^15,^20]tetratriaconta-2,4,6(34),8,10(33),11,13,15(20),16,18-decaen-3-yl]acetic acid], the EC50 turned out to be 6 nM. For the molecule `Cc1cc2c(cc1F)-c1cccc(c1)-c1cn3c(c([C@H](OC(C)(C)C)C(=O)O)c(C)cc3n1)N1CCC(C)(CC1)OCCCC[C@H](C)O2` [Example 20, (2S)-2-(tert-Butoxy)-2-[(22S)-17-fluoro-4,18,22,28-tetramethyl-21,27-dioxa-1,7,34-triazahexacyclo[26.2.2.1^6,^9.1^10,^14.0^2,^7.0^15,^20]tetratriaconta-2,4,6(34),8,10(33),11,13,15(20),16,18-decaen-3-yl]acetic acid], the midpoint of the response, the EC50, lay at 11 nM. Regarding `Cc1cc2c(cc1F)-c1cccc(c1)-c1cn3c(c([C@H](OC(C)(C)C)C(=O)O)c(C)c(C)c3n1)N1CCC(C)(CC1)OCCCC[C@H](C)O2` [Example 30, (2S)-2-(tert-Butoxy)-2-[(22S)-17-fluoro-4,5,18,22,28-pentamethyl-21,27-dioxa-1,7,34-triazahexacyclo[26.2.2.1^6,^9.1^10,^14.0^2,^7.0^15,^20]tetratriaconta-2,4,6(34),8,10(33),11,13,15(20),16,18-decaen-3-yl]acetic acid], the response was half-maximal at 21 nM (EC50). Still for that read-out and setting: with `Cc1c([C@H](OC(C)(C)C)C(=O)O)c2n3cc(nc3c1C)-c1cccc(c1)-c1cc(F)ccc1O[C@@H](C)CCCCOC1(C)CCN2CC1` [Example 33, (2S)-2-(tert-Butoxy)-2-[(22S)-17-fluoro-4,5,22,28-tetramethyl-21,27-dioxa-1,7,34-triazahexacyclo[26.2.2.1^6,^9.1^10,^14.0^2,^7.0^15,^20]tetratriaconta-2,4,6(34),8,10(33),11,13,15(20),16,18-decaen-3-yl]acetic acid] the figure was 25 nM; with `Cc1cc2c(cc1C)-c1cccc(c1)-c1cn3c(c([C@H](OC(C)(C)C)C(=O)O)c(C)cc3n1)N1CCC(C)(CC1)OC/C=C\C[C@H](C)O2` [Example 18, (2S)-2-(tert-Butoxy)-2-[(22S)-4,17,18,22,28-pentamethyl-21,27-dioxa-1,7,34-triazahexacyclo[26.2.2.1^6,^9.1^10,^14.0^2,^7.0^15,^20]tetratriaconta-2,4,6(34),8,10(33),11,13,15(20),16,18,24-undecaen-3-yl]acetic acid], 8 nM. Turning to `Cc1c([C@H](OC(C)(C)C)C(=O)O)c2n3cc(nc3c1C)-c1cccc(c1)-c1cc(F)cc(F)c1O[C@@H](C)CCCCOC1(C)CCN2CC1` [Example 45, (2S)-2-(tert-Butoxy)-2-[(22S)-17,19-difluoro-4,5,22,28-tetramethyl-21,27-dioxa-1,7,34-triazahexacyclo[26.2.2.1^6,^9.1^10,^14.0^2,^7.0^15,^20]tetratriaconta-2,4,6(34),8,10(33),11,13,15(20),16,18-decaen-3-yl]acetic acid], the response was half-maximal at 47 nM (EC50). `Cc1cc2c(cc1F)-c1cccc(c1)-c1nc3cc(C)c([C@H](OC(C)(C)C)C(=O)O)c(n3c1Cl)N1CCC(C)(CC1)OCCCC[C@H](C)O2` [Example 24, (2S)-2-(tert-Butoxy)-2-[(22S)-8-chloro-17-fluoro-4,18,22,28-tetramethyl-21,27-dioxa-1,7,34-triazahexacyclo[26.2.2.1^6,^9.1^10,^14.0^2,^7.0^15,^20]tetratriaconta-2,4,6(34),8,10(33),11,13,15(20),16,18-decaen-3-yl]acetic acid] gave an EC50 of 20 nM.

`Cc1cc2nc3cn2c(c1[C@H](OC(C)(C)C)C(=O)O)N1CCC(C)(CC1)OC/C=C/C[C@H](C)Oc1cc(F)c(F)cc1-c1cccc-3c1` [Example 11, (2S)-2-(tert-Butoxy)-2-[(22S)-17,18-difluoro-4,22,28-trimethyl-21,27-dioxa-1,7,34-triazahexacyclo[26.2.2.1^6,^9.1^10,^14.0^2,^7.0^15,^20]tetratriaconta-2,4,6(34),8,10(33),11,13,15(20),16,18,24-undecaen-3-yl]acetic acid] returned an EC50 of 12 nM. As for `Cc1cc2nc3cn2c(c1[C@H](OC(C)(C)C)C(=O)O)N1CCC(C)(CC1)OCCCCCOc1ccc(F)cc1Cc1nc-3[nH]c1Cl` [Example 5], the EC50 was 7 nM. As to `Cc1cc2nc3c(Cl)n2c(c1[C@H](OC(C)(C)C)C(=O)O)N1CCC(C)(CC1)OCCCC[C@H](C)Oc1cc(F)c(F)cc1-c1cccc-3c1` [Example 23, (2S)-2-(tert-Butoxy)-2-[(22S)-8-chloro-17,18-difluoro-4,22,28-trimethyl-21,27-dioxa-1,7,34-triazahexacyclo[26.2.2.1^6,^9.1^10,^14.0^2,^7.0^15,^20]tetratriaconta-2,4,6(34),8,10(33),11,13,15(20),16,18-decaen-3-yl]acetic acid], the EC50 was determined as 19 nM.

The experiment is the same for the next values; noted with them: MT-2 cells infected with NL-RLuc virus, 5 days of incubation, 10% FBS, at least 2 experiments.
For the molecule `Cc1c([C@H](OC(C)(C)C)C(=O)O)c2n3cc(nc3c1C)-c1cccc(c1)-c1c(F)cc(F)cc1O[C@@H](C)CCCCOC1(C)CCN2CC1` [Example 44, (2S)-2-(tert-butoxy)-2-[(22S)-16,18-difluoro-4,5,22,28-tetramethyl-21,27-dioxa-1,7,34-triazahexacyclo[26.2.2.1^6,^9.1^10,^14.0^2,^7.0^15,^20]tetratriaconta-2,4,6(34),8,10(33),11,13,15(20),16,18-decaen-3-yl]acetic acid], the EC50 amounted to 331 nM. As for `Cc1c([C@H](OC(C)(C)C)C(=O)O)c2n3cc(nc3c1C(C)O)-c1cccc(c1)-c1c(ccc(F)c1F)O[C@@H](C)CCCCOC1(C)CCN2CC1` (stereo partly drawn) [Example 50, (2S)-2-(tert-Butoxy)-2-[(22S)-16,17-difluoro-5-(1-hydroxyethyl)-4,22,28-trimethyl-21,27-dioxa-1,7,34-triazahexacyclo[26.2.2.1^6,^9.1^10,^14.0^2,^7.0^15,^20]tetratriaconta-2,4,6(34),8,10(33),11,13,15(20),16,18-decaen-3-yl]acetic acid], a half-maximal response (EC50) required 10 nM.

Staying with this experiment, now noted: MT-2 cells infected with NL-RLuc virus, 5 days of incubation, 10% FBS, at least 2 experiments; read-out: EC50.
As for `Cc1cc2nc3cn2c(c1[C@H](OC(C)(C)C)C(=O)O)N1CCC(C)(CC1)OCC=CC[C@H](C)Oc1cc(F)cc(F)c1-c1cccc-3c1` [Example 14, (2S)-2-(tert-Butoxy)-2-[(22S)-16,18-difluoro-4,22,28-trimethyl-21,27-dioxa-1,7,34-triazahexacyclo[26.2.2.1^6,^9.1^10,^14.0^2,^7.0^15,^20]tetratriaconta-2,4,6(34),8,10(33),11,13,15(20),16,18,24-undecaen-3-yl]acetic acid], the EC50 was 2 nM.
